Assay results: patent publication US6479434B1, “Composition and method for treating plants with exogenous chemicals” (Monsanto Technology LLC, priority 1996, dated 2002)

Experiments:
Assay type in all cases: in vivo
[1] = system: Prickly sida (Sida spinosa, SIDSP); experiment: Example 53 greenhouse herbicidal inhibition, asulam compositions (Table 53); details: asulam rate 200 g a.i./ha; evaluated 14 days after application
Excerpt: (§1) Seeds of the plant species indicated were planted in 85 mm square pots in a soil mix which was previously steam sterilized and prefertilized with a 13-13-14 NPK slow release fertilizer at a rate of 3.6 kg/m^3. The pots were placed in a greenhouse with sub-irrigation. About one week after emergence, seedlings were thinned as needed, including removal of any unhealthy or abnormal plants, to create a uniform series of test pots.
(§2) The plants were maintained for the duration of the test in the greenhouse where they received a minimum of 14 hours of light per day. If natural light was insufficient to achieve the daily requirement, artificial light with an intensity of approximately 475 microeinsteins was used to make up the difference. […]
(§3) A set of pots was left untreated as a reference against which effects of the treatments could later be evaluated.
(§4) Application of glyphosate compositions was made by spraying with a track sprayer fitted with a 9501E nozzle calibrated to deliver a spray volume of 93 liters per hectare (l/ha) at a pressure of 166 kilopascals (kPa). After treatment, pots were returned to the greenhouse until ready for evaluation.
(§5) For evaluation of herbicidal effectiveness, all plants in the test were examined by a single practiced technician, who recorded percent inhibition, a visual measurement of the effectiveness of each treatment by comparison with untreated plants. […]

[2] = system: Japanese millet (Echinochloa crus-galli, ECHCF); experiment: as above; details: asulam rate 200 g a.i./ha; evaluated 14 days after application
Excerpt: as §1, §2, §3, §4, §5

[3] = system: Prickly sida (Sida spinosa, SIDSP); experiment: Example 52 greenhouse herbicidal inhibition, acifluorfen sodium compositions (Table 52); details: evaluated 10 days after application
Excerpt: as §1
(§6) The plants were maintained for the duration of the test in the greenhouse where they received a minimum of 14 hours of light per day. If natural light was insufficient to achieve the daily requirement, artificial light with an intensity of approximately 475 microeinsteins was used to make up the difference. Exposure temperatures were not precisely controlled but averaged about 27° C. during the day and about 18° C. during the night. Plants were sub-irrigated throughout the test to ensure adequate soil moisture levels.
as §3, §4
(§7) For evaluation of herbicidal effectiveness, all plants in the test were examined by a single practiced technician, who recorded percent inhibition, a visual measurement of the effectiveness of each treatment by comparison with untreated plants.
(§8) Velvetleaf (Abutilon theophrasti, ABUTH), Japanese millet (Echinochloa crus-galli, ECHCF) and prickly sida (Sida spinosa, SIDSP) plants were grown and treated by the standard procedures given above. Applications of spray compositions were made 15 days after planting ABUTH, 9 days after planting ECHCF and 22 days after planting SIDSP. Evaluation of herbicidal inhibition was done 10 days after application.

[4] = system: Velvetleaf (Abutilon theophrasti, ABUTH); experiment: as above; details: evaluated 10 days after application
Excerpt: as §1, §6, §3, §4, §7, §8

[5] = system: Japanese millet (Echinochloa crus-galli, ECHCF); experiment: as above; details: evaluated 10 days after application
Excerpt: as §1, §6, §3, §4, §7, §8

[6] = system: Prickly sida (Sida spinosa, SIDSP); experiment: Example 54 greenhouse herbicidal inhibition, dicamba sodium compositions (Table 54); details: evaluated 17 days after application
Excerpt: as §1, §6, §3, §4, §7
as §8, with “14” for “15”, “8” for “9”, “21” for “22”, “17” for “10”

[7] = system: Velvetleaf (Abutilon theophrasti, ABUTH); experiment: as above; details: evaluated 17 days after application
Excerpt: as §1, §6, §3, §4, §7
as §8, with “14” for “15”, “8” for “9”, “21” for “22”, “17” for “10”

[8] = system: Japanese millet (Echinochloa crus-galli, ECHCF); experiment: as above; details: evaluated 17 days after application
Excerpt: as §1, §6, §3, §4, §7
as §8, with “14” for “15”, “8” for “9”, “21” for “22”, “17” for “10”

[9] = system: Japanese millet (Echinochloa crus-galli, ECHCF); experiment: Example 57 greenhouse herbicidal inhibition, fluazifop-p-butyl compositions (Table 57); details: fluazifop-p rate 5 g a.i./ha; evaluation 10 days after application
Excerpt: as §1, §6, §3
[…] After treatment, pots were returned to the greenhouse until ready for evaluation.
as §5

[10] = system: Prickly sida (Sida spinosa, SIDSP); experiment: Example 51 greenhouse herbicidal inhibition, paraquat dichloride compositions (Table 51); details: evaluated 12 days after application
Excerpt: as §1, §6, §3, §4, §7
as §8, with “14” for “15”, “8” for “9”, “21” for “22”, “12” for “10”

[11] = system: Velvetleaf (Abutilon theophrasti, ABUTH); experiment: as above; details: evaluated 12 days after application
Excerpt: as §1, §6, §3, §4, §7
as §8, with “14” for “15”, “8” for “9”, “21” for “22”, “12” for “10”

[12] = system: Japanese millet (Echinochloa crus-galli, ECHCF); experiment: as above; details: evaluated 12 days after application
Excerpt: as §1, §6, §3, §4, §7
as §8, with “14” for “15”, “8” for “9”, “21” for “22”, “12” for “10”

Compound: COC(=O)NS(=O)(=O)c1ccc(N)cc1 [Asulam]
- % Inhibition SIDSP [1]: 0%
- % Inhibition ECHCF [2]: 12%

Compound: O=C(O)c1cc(Oc2ccc(C(F)(F)F)cc2Cl)ccc1[N+](=O)[O-] [Acifluorfen]
- % Inhibition SIDSP ([3]; acifluorfen rate 25 g a.i./ha): 15%
- % Inhibition SIDSP ([3]; acifluorfen rate 50 g a.i./ha): 17%
- % Inhibition SIDSP ([3]; acifluorfen rate 100 g a.i./ha): 35%
- % Inhibition SIDSP ([3]; acifluorfen rate 200 g a.i./ha): 40%
- % Inhibition ABUTH ([4]; acifluorfen rate 25 g a.i./ha): 20%
- % Inhibition ABUTH ([4]; acifluorfen rate 50 g a.i./ha): 32%
- % Inhibition ABUTH ([4]; acifluorfen rate 100 g a.i./ha): 52%
- % Inhibition ABUTH ([4]; acifluorfen rate 200 g a.i./ha): 62%
- % Inhibition ECHCF ([5]; acifluorfen rate 25 g a.i./ha): 2%
- % Inhibition ECHCF ([5]; acifluorfen rate 50 g a.i./ha): 7%
- % Inhibition ECHCF ([5]; acifluorfen rate 100 g a.i./ha): 18%
- % Inhibition ECHCF ([5]; acifluorfen rate 200 g a.i./ha): 35%

Compound: COc1c(Cl)ccc(Cl)c1C(=O)O [Dicamba]
- % Inhibition SDSP ([6]; dicamba rate 25 g a.i./ha): 30%
- % Inhibition SDSP ([6]; dicamba rate 50 g a.i./ha): 40%
- % Inhibition SDSP ([6]; dicamba rate 100 g a.i./ha): 50%
- % Inhibition SDSP ([6]; dicamba rate 200 g a.i./ha): 58%
- % Inhibition ABUTH ([7]; dicamba rate 25 g a.i./ha): 47%
- % Inhibition ABUTH ([7]; dicamba rate 50 g a.i./ha): 63%
- % Inhibition ABUTH ([7]; dicamba rate 100 g a.i./ha): 82%
- % Inhibition ABUTH ([7]; dicamba rate 200 g a.i./ha): 93%
- % Inhibition ECHCF ([8]; dicamba rate 25 g a.i./ha): 0%
- % Inhibition ECHCF ([8]; dicamba rate 50 g a.i./ha): 0%
- % Inhibition ECHCF ([8]; dicamba rate 100 g a.i./ha): 0%
- % Inhibition ECHCF ([8]; dicamba rate 200 g a.i./ha): 5%

Compound: CCCCOC(=O)[C@@H](C)Oc1ccc(Oc2ccc(C(F)(F)F)cn2)cc1 [Fluazifop-p-butyl (technical)]
- % Inhibition ECHCF [9]: 3%

Compound: C[n+]1ccc(-c2cc[n+](C)cc2)cc1 [Paraquat dichloride]
- % Inhibition SIDSP ([10]; paraquat rate 25 g a.i./ha): 55%
- % Inhibition SIDSP ([10]; paraquat rate 50 g a.i./ha): 60%
- % Inhibition SIDSP ([10]; paraquat rate 100 g a.i./ha): 69%
- % Inhibition SIDSP ([10]; paraquat rate 200 g a.i./ha): 99%
- % Inhibition ABUTH ([11]; paraquat rate 25 g a.i./ha): 50%
- % Inhibition ABUTH ([11]; paraquat rate 50 g a.i./ha): 57%
- % Inhibition ABUTH ([11]; paraquat rate 100 g a.i./ha): 73%
- % Inhibition ABUTH ([11]; paraquat rate 200 g a.i./ha): 85%
- % Inhibition ECHCF ([12]; paraquat rate 25 g a.i./ha): 83%
- % Inhibition ECHCF ([12]; paraquat rate 50 g a.i./ha): 78%
- % Inhibition ECHCF ([12]; paraquat rate 100 g a.i./ha): 84%
- % Inhibition ECHCF ([12]; paraquat rate 200 g a.i./ha): 95%
